The numbers were not newly measured in patent publication US20180117047A1, “DRUG FOR PREVENTING AND/OR TREATING DEMENTIA” (NATIONAL UNIVERSITY CORPORATION TOTTORI UNIVERSITY, priority 2015, published 2018), which cites them from elsewhere.

Structures are written as SMILES. Where two headings read alike, the source gives them in different places.

In the series the test system is F11 cell strain, fusion cells of rat primarily cultured nerve cells and mouse neuroblastomas, expressing N141I mutant of presenilin 2. The note with it: cited from earlier work.

Regarding `COc1cc(-c2cnn3c(O)ncnc23)ccc1[S+]([O-])c1ccccc1.[Na]` (single isomer, unassigned; (-)) [(−)-4-hydroxy-8-(3-methoxy-4-phenylsulfinylphenyl)pyrazolo[1,5-a]-1,3,5-triazine sodium salt], the “Nerve cell death caused by addition of ecdysone” value (100 nM xanthine oxidase inhibitor simultaneously with 100 μM acetyl-L-aspartyl-L-glutamyl-L-valyl-L-aspart-1-al (caspase inhibitor)) is given as “suppressed”.

For `O=c1[nH]c(=O)c2c[nH]nc2[nH]1` [oxypurinol], the “Nerve cell death caused by addition of ecdysone” value by setting is: (100 μM oxypurinol simultaneously with 100 μM acetyl-L-aspartyl-L-glutamyl-L-valyl-L-aspart-1-al (caspase inhibitor)) “suppressed”; (100 μM oxypurinol simultaneously with 300 μM apocynin (NADPH oxidase inhibitor)) “suppressed”.
